The text below walks through data of patent US11951167B2, “Targeted liposomes” (GEORGETOWN UNIVERSITY, priority 2012, dated 2024).

Usually pIC50 stands for the negative decadic logarithm of the IC50, by convention in mol/L.

pIC50: −log10 of the molar value.

One assay relates to HT-29 cells. The experiment in a line: XTT cell viability, IH formulations. The conditions noted are these: Homo sapiens, 24 h. The format is cell-based. On the procedure: (§1) After 24 hours, the media was replaced with serum-free medium, overlaid with 100 μL of increasing concentrations of either scL-IH nanocomplex, prepared as described above in Example 26, unliganded nanocomplex (L-IH), free IH or LipA only in serum-free medium. The cells were, incubated for 5 hours and then supplemented with FBS. […] The IC50 was interpolated from the graph of the log of drug concentration versus the fraction of surviving cells.

The test system of a further assay is HT-29 xenograft tumors. Put plainly: Anti-tumor efficacy in subcutaneous colon xenografts. It is filed as in vivo, athymic nude mice. The protocol:
In our initial in vivo experiment, we assessed the anti-tumor efficacy of various molar ratios of liposome to IH. Tumors of human colon tumor cell line HT-29 were induced in female athymic nude mice (5-10 animals/group) by the subcutaneous injection of 3.12×10^5 cells/site/mouse suspended in Matrigel® collagen basement solution. When the tumors reached ˜100 mm^3 treatment was initiated. […] Groups of animals were also treated with Free IH, scL without IH, the nanocomplex without the targeting moiety (Lip-IH), as well as a group of untreated mice. The mice were IV injected twice weekly to a total of 15 injections. […] Thus, in the remainder of the studies the optimal ratio of 1:1 (Liposome:IH) was used in preparation of the scL-IH nanocomplex. […] Here also the mice received a total of 15 intravenous injections.

Another assay has as its system PANC-1 cells. The experiment in a line: XTT cell viability, IH formulations. The format is cell-based, human. The protocol: as §1
The test system of a further assay is Hep G2 cells. Put plainly: XTT cell viability, IH formulations. The format is cell-based, human. On the procedure:
as §1
For orientation: Formazan colour is commonly taken as a measure of viable cells.

Assay [1] relates to KMS-11 cells. The experiment in a line: Cell viability by Trypan Blue counting, MEL formulations. The note with it: Homo sapiens, KMS-11, 48 h. It is filed as cell-based. The protocol:
The size of the scL-MEL nanocomplex was 45 and 57 nm, respectively.
For these in vitro cell survival studies, the human multiple myeloma cell line KMS-11 was used. These are non-adherent cells and grow in suspension. 4×10^5 cells in 2.6 ml of serum free media were incubated in a sterile 50 ml centrifuge tube with 400 ul of the scL-MEL (at either ratio) or unencapsulated MEL for one hour. Following this incubation, the medium was supplemented with fetal bovine serum to a final concentration of 10% (0.3 ml/tube). After incubation for an additional 47 h, cell viability was determined by Trypan Blue counting of the cells. To accomplish this, one part trypan blue solution is mixed with 1 part cell suspension (1:1 dilution) in a 2 mL eppendorf tube (e.g. 200 μL trypan blue is mixed with 200 μL cell suspension). Using a hemacytometer and a microscope the number of viable cells (unstained) and dead cells (stained) are counted. The average number of cells per 0.1 mm^3 is calculated and the number of cells per mL determined. The percent of viable cells is calculated as follows: Viable Cells %=(Number of viable cells/Number of Cells)*100
This complex was subsequently lyophilized and the samples stored in a desiccator at 2-8° C. After one week of storage the lyophilized scL-Mel complex was reconstituted with endotoxin free water and used to transfect KMS-11 cells as described above. […]

The subject of assay [2] is KMS-11 cells. The experiment in a line: Cell viability, MEL or scL-MEL combined with scL-p53. It is filed as cell-based. The note with it: Homo sapiens, scL-p53 DNA dose 0.2 ug/4×10^5 cells in the combination. The protocol:
Cells (4×10^5 per tube) were transfected with different scL/MEL complexes containing increasing doses of MEL. The scL-p53 was prepared as previously described (U.S. Pat. No. 7,780,822). The DNA dose used for all transfections was 0.2 ug/4×10^5 cells. […] The IC20 was used to allow detection of an additive or synergistic effect of the two treatments. The KMS-11 cells were transfect with Free (unencapsulated) MEL alone, scL-MEL alone, or the combination of Free (unencapsulated) or scL encapsulated MEL plus scL-p53 (FIG. 37).

The target in another assay is T1, topoisomerase I (Homo sapiens, UniProt P11387).
T1 sequence (P11387 1-765): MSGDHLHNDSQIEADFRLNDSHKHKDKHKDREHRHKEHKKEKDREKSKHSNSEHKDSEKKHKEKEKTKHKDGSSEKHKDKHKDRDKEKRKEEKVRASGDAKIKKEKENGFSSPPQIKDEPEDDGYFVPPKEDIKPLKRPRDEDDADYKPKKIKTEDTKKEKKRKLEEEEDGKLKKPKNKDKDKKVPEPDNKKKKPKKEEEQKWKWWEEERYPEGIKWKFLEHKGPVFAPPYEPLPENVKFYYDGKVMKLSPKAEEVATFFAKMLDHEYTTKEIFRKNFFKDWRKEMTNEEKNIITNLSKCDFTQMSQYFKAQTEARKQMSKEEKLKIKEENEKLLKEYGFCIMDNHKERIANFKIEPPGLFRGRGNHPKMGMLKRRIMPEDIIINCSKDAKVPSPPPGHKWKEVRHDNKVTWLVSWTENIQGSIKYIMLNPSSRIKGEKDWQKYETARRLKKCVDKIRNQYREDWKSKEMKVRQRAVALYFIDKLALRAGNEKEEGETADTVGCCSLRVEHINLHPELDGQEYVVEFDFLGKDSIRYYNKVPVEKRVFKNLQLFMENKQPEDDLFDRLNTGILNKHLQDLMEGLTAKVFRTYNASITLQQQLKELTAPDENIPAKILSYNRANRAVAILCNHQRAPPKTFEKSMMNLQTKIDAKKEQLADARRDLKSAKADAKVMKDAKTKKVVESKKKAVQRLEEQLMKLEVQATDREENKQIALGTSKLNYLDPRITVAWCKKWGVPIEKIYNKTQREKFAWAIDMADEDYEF
The conditions noted are these: cited from earlier work.

The molecule `CCc1c2c(nc3ccc(OC(=O)N4CCC(N5CCCCC5)CC4)cc13)-c1cc3c(c(=O)n1C2)COC(=O)[C@]3(O)CC` [IH, Irinotecan] had a pIC50 with HT-29 cells of under 5.00. The tumor growth result is listed as “minimal effect on tumor growth” in the assay with HT-29 xenograft tumors (first experiment, IH 10 mg/kg i.v. twice weekly, 15 injections, Liposome:IH 1:1 for the complex) and “only minimal effect” in the assay with HT-29 xenograft tumors (second experiment (fresh vs lyophilized), IH 10 mg/kg, Liposome:IH 1:1, 15 injections). In addition, the “cell kill at the low doses tested” value with PANC-1 cells and in the assay with Hep G2 cells was “no effect” throughout.

With `N[C@@H](Cc1ccc(N(CCCl)CCCl)cc1)C(=O)O` [MEL, melphalan], the pIC50 was 4.75 with KMS-11 cells [1] and 4.96 with KMS-11 cells [2].

`CCc1c2c(nc3ccc(O)cc13)-c1cc3c(c(=O)n1C2)COC(=O)[C@]3(O)CC` [SN-38, 7-ethyl-10-hydroxy-camptothecin]: the “potency relative to parent compound irinotecan” value at topoisomerase I is “One thousand-fold more potent”.
